# Test results published in patent publication US20070191336A1 (priority 2003, published 2007).
# Biological target: T1, phospho p-38 alpha kinase (Homo sapiens, UniProt Q16539)
# T1 construct: purchased Panvera
# Test: P-38 alpha kinase assay (spectrophotometric, pyruvate kinase/lactate dehydrogenase coupled)
# Assay type: biochemical
# Settings: Table 3; at 10 uM
# Method: In this assay, the oxidation of NADH was continuously measured spectrophometrically. […] The reaction was initiated by adding ATP. The absorption at 340 nm was monitored continuously for up to 4 hours at 30° C. on Polarstar Optima plate reader (BMG). The kinase activity (reaction rate) was calculated from the slope at the time frame from 1.5 h to 2 h.
# For inhibition determinations, test compounds were incubated with the reaction mixture for ˜5 min before adding ATP to start the reaction. […] IC50 values were calculated from a series of % inhibition values determined at a range of concentrations of each inhibitor using Prism to process the data and fit inhibition curves. Generally, the rates obtained at the time frame of 1.5 h to 2 h were used for these calculations.
# T1 sequence (Q16539 whole entry): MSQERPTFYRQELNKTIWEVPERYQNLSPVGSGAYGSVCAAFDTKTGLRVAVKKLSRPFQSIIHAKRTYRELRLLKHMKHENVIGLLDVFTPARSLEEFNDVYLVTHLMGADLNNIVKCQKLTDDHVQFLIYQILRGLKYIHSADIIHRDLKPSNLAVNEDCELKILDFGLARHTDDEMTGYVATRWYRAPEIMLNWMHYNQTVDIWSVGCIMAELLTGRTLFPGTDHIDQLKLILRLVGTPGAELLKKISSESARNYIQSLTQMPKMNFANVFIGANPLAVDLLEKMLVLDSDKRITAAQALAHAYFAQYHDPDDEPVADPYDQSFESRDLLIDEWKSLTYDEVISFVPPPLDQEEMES
row,Compound,% Inhibition @ concentration [% @ 10]
1,CC(C)c1cc(NC(=O)Nc2ccc(Cl)cc2)n(-c2cccc(CCC(=O)O)c2)n1 [Example 532],66

# Same assay, conditions: Table 3; rates from […] to 2 h time frame
row,Compound,IC50 [nM]
1,"CC(C)(C)c1cc(NC(=O)Nc2cccc(Cl)c2Cl)n(-c2ccc3c(c2)CNCC3)n1 [Example 508, 1-[3-t-butyl-(1,2,3,4-tetrahydroisoquinolin-7-yl)-1H-pyrazol-5-yl]-3-(2,3-dichlorophenyl)urea]",52
2,"CN(C)CCc1cccc(-n2nc(C(C)(C)C)cc2NC(=O)Nc2cccc(Cl)c2Cl)c1 [Example 383, 1-(3-t-butyl-1-{3-[2-(dimethylamino)ethyl]phenyl}-1H-pyrazol-5-yl)-3-(2,3-di-chlorophenyl)urea]",100
3,"CC(C)(C)C1=NC(c2ccc(CC(=O)O)cc2)C(NC(=O)Nc2ccc(Cl)cc2)=C1 (centres unmarked) [Example 506, 2-(4-{5-t-butyl-3-[3-(4-chlorophenyl)ureido]-2H-pyrrol-2-yl}-phenyl)acetic acid]",42
4,"CC(C)(C)c1cc(NC(=O)Nc2cccc(Cl)c2Cl)n(-c2cccc(C(C)(C)O)c2)n1 [Example 476, 1-{3-t-butyl-1-[3-(2-hydroxypropan-2-yl)phenyl]-1H-pyrazol-5-yl}-3-(2,3-dichlorophenyl)urea]",24
5,"CC(C)(C)c1cc(NC(=O)Nc2cccc3ccccc23)n(-c2cccc(CN3C(=O)C(=O)NS3(=O)=O)c2)n1 [Example 482, 1-{5-t-butyl-2-[3-(1,1,3,4-tetraoxo-1λ^6-[1,2,5]thiadiazolidin-2-ylmethyl)phenyl]-2H-pyrazol-3-yl}-3-(naphthalen-1-yl)urea]",84
6,"CC(C)(C)c1cc(NC(=O)Nc2ccc(Cl)cc2)n(-c2cccc(CN3C(=O)C(=O)NS3(=O)=O)c2)n1 [Example 483, 1-{5-t-butyl-2-[3-(1,1,3,4-tetraoxo-1λ^6-[1,2,5]thiadiazolidin-2-ylmethyl)phenyl]-2H-pyrazol-3-yl}-3-(4-chlorophenyl)urea]",270
7,"CCOC(=O)C(C)Cc1ccc(-n2nc(C(C)(C)C)cc2NC(=O)Nc2cccc3ccccc23)cc1 (centres unmarked) [Example 427, ethyl 3-(4-{3-t-butyl-5-[3-(naphthalen-1-yl)ureido]-1H-pyrazol-1-yl}phenyl)-2-methylpropanoate]",819

# Results, then the compound that gave them:
row,IC50 [nM],Compound
1,2000,"CC(C)(C)c1cc(NC(=O)Nc2cccc(C(F)(F)F)c2)n(-c2cccc(CCN)c2)n1 [Example 380, 1-{1-[3-(2-aminoethyl)phenyl]-3-t-butyl-1H-pyrazol-5-yl}-3-[3-(trifluoromethyl)phenyl]urea]"
2,119,"CC(C)(C)c1cc(NC(=O)Nc2cccc(Cl)c2Cl)n(-c2ccc(C(C)(C)O)cc2)n1 [Example 467, 1-{3-t-butyl-1-[4-(2-hydroxypropan-2-yl)phenyl]-1H-pyrazol-5-yl}-3-(2,3-dichlorophenyl)urea]"
3,40,"CN1CCN(C(=O)NCc2cccc(-n3nc(C(C)(C)C)cc3NC(=O)Nc3cccc4ccccc34)c2)CC1 [Example 492, 1-(3-t-butyl-1-{3-[(1-methylpiperazine-4-carboxamido)methyl]phenyl)-1H-pyrazol-5-yl)-3-(naphthalen-1-yl)urea]"
4,17,"CC(C)(C)c1cc(NC(=O)Nc2cccc3ccccc23)n(-c2ccc(CO)cc2)n1 [Example 461, 1-{3-t-butyl-1-[4-(hydroxymethyl)phenyl]-1H-pyrazol-5-yl}-3-(naphthalen-1-yl)urea]"
5,89,"CC(C)(C)c1cc(NC(=O)Nc2ccccc2F)n(-c2cccc(CO)c2)n1 [Example 303, 1-{3-t-butyl-1-[3-(hydroxymethyl)phenyl]-1H-pyrazol-5-yl}-3-(2-fluorophenyl)urea]"
6,540,"CC(C)(C)c1cc(NC(=O)Nc2ccc(Cl)cc2)n(-c2cccc(CNC(=O)N3CCCCC3)c2)n1 [Example 488, 1-(3-t-butyl-1-{3-{(piperidine-1-carboxamido)methyl]phenyl}-1H-pyrazol-5-yl)-3-(4-chlorophenyl)urea]"
7,56,"CC(C)(C)c1cc(NC(=O)Nc2cccc(F)c2F)n(-c2cccc(CO)c2)n1 [Example 395, 1-{3-t-butyl-1-[3-(hydroxymethyl)phenyl]-1H-pyrazol-5-yl}-3-(2,3-difluorophenyl)urea]"
8,14.7,CCOC(=O)Cc1ccc(-n2nc(C(C)(C)C)cc2NC(=O)Nc2cccc(Cl)c2Cl)cc1 [Example 421]
9,340,"CN(C)C(=O)NCc1cccc(-n2nc(C(C)(C)C)cc2NC(=O)Nc2ccc(Cl)cc2)c1 [Example 491, 1-{3-t-butyl-1-[3-(3,3-dimethylureidomethyl)phenyl]-1H-pyrazol-5-yl}-3-(4-chlorophenyl)urea]"
10,910,"CC(C)(C)c1cc(NC(=O)Nc2ccc3c(c2)OCO3)n(-c2cccc(CN)c2)n1 [Example 391, 1-{1-[3-(aminomethyl)phenyl]-3-t-butyl-1H-pyrazol-5-yl}-3-(benzo-[d][1,3]dioxol-5-yl)urea]"
11,130,"COc1cccc(-n2nc(C(C)(C)C)cc2NC(=O)Nc2cccc(F)c2)c1 [Example 310, 1-(3-t-butyl-1-(3-methoxyphenyl)-1H-pyrazol-5-yl)-3-(3-fluorophenyl)urea]"
12,670,"COc1cccc(-n2nc(C(C)(C)C)cc2NC(=O)Nc2ccc(Cl)cc2Cl)c1 [Example 318, 1-(3-t-butyl-1-(3-methoxyphenyl)-1H-pyrazol-5-yl)-3-(2,4-dichlorophenyl)urea]"
13,50,"CC(C)(C)c1cc(NC(=O)Nc2cccc3ccccc23)n(-c2cccc(CNC(=O)N3CCOCC3)c2)n1 [Example 485, 1-(3-t-butyl-1-{3-[(morpholine-4-carboxamido)methyl]phenyl}-1H-pyrazol-5-yl)-3-(naphthalen-1-yl)urea]"
14,75,"CC(C)(C)c1cc(NC(=O)Nc2cccc(F)c2F)n(-c2ccc(CO)cc2)n1 [Example 418, 1-{3-t-butyl-1-[4-(hydroxymethyl)phenyl]-1H-pyrazol-5-yl}-3-(2,3-difluoro-phenyl)urea]"
15,4,"C#CC(O)c1cccc(-n2nc(C(C)(C)C)cc2NC(=O)Nc2cccc3ccccc23)c1 (centres unmarked) [Example 473, 1-{3-t-butyl-1-[3-(1-hydroxyprop-2-ynyl)phenyl]-1H-pyrazol-5-yl}-3-(naphthalen-1-yl)urea]"
16,250,"CC(C)(C)c1cc(NC(=O)Nc2ccc(Cl)cc2)n(-c2cccc(Cn3c(=O)[nH]n(-c4ccccc4)c3=O)c2)n1 [Example 495, 1-(3-t-butyl-1-{3-[(3,5-dioxo-1-phenyl-1,2,4-triazolidin-4-yl)methyl]phenyl}-1H-pyrazol-5-yl)-3-(4-chlorophenyl)urea]"

# Same assay, conditions: read-out: % Inhibition @ concentration, Table 3; at 0.1 uM
row,Compound,inhibition at 0.1 µM [%]
1,"CCOC(=O)Cc1cccc(-n2nc(C(C)(C)C)cc2NC(=O)Nc2ccc3c(c2)OCO3)c1 [Example 399, ethyl 2-(3-{5-[3-(benzo[d][1,3]dioxol-5-yl)ureido]-3-t-butyl-1H-pyrazol-1-yl}phenyl)-acetate]",21
2,"CC(C)(C)c1cc(NC(=O)Nc2ccc3c(c2)OCO3)n(-c2cccc(CCN)c2)n1 [Example 404, 1-{1-[3-(2-aminoethyl)phenyl]-3-t-butyl-1H-pyrazol-5-yl}-3-(benzo[d][1,3]dioxol-5-yl)urea]",-11
3,"COc1ccc(-n2nc(C(C)(C)C)cc2NC(=O)Nc2cccc(Cl)c2)cc1 [Example 350, 1-[3-t-butyl-1-(4-methoxyphenyl)-1H-pyrazol-5-yl]-3-(3-chlorophenyl)urea]",39

# Same assay, conditions: read-out: % Inhibition @ concentration, Table 3; at 1 uM
row,Compound,inhibition at 1 µM [%]
1,"CCOC(=O)Cc1cccc(-n2nc(C(C)(C)C)cc2NC(=O)Nc2ccc3c(c2)OCO3)c1 [Example 399, ethyl 2-(3-{5-[3-(benzo[d][1,3]dioxol-5-yl)ureido]-3-t-butyl-1H-pyrazol-1-yl}phenyl)-acetate]",74
2,"CC(C)(C)c1cc(NC(=O)Nc2cccc3ccccc23)n(-c2cccc(OCCCN3CCS(=O)(=O)CC3)c2)n1 [Example 528, 1-(5-t-butyl-2-{3-[3-(1,1-dioxo-16-thiomorpholin-4-yl)-propoxy]-phenyl}-2H-pyrazol-3-yl)-3-naphthalen-1-yl-urea]",35
3,"CC(C)(C)c1cc(NC(=O)Nc2ccc3c(c2)OCO3)n(-c2cccc(CCN)c2)n1 [Example 404, 1-{1-[3-(2-aminoethyl)phenyl]-3-t-butyl-1H-pyrazol-5-yl}-3-(benzo[d][1,3]dioxol-5-yl)urea]",48
4,"COc1ccc(-n2nc(C(C)(C)C)cc2NC(=O)Nc2cccc(Cl)c2)cc1 [Example 350, 1-[3-t-butyl-1-(4-methoxyphenyl)-1H-pyrazol-5-yl]-3-(3-chlorophenyl)urea]",64

# Same assay, conditions: read-out: % Inhibition @ concentration, Table 3; at 10 uM
row,Compound,inhibition at 10 µM [%]
1,"CC(C)(C)c1cc(NC(=O)Nc2cccc3cccnc23)n(-c2cccc(CCC(=O)O)c2)n1 [Example 367, 3-(3-{3-t-butyl-5-[3-(quinolin-8-yl)ureido]-1H-pyrazol-1-yl}phenyl)-propionic acid]",85
2,"CCOC(=O)CCc1cccc(-n2nc(C(C)(C)C)cc2NC(=O)Nc2cccc3cccnc23)c1 [Example 366, 3-(3-{3-t-butyl-5-[3-(quinolin-8-yl)ureido]-1H-pyrazol-1-yl}phenyl)-propionic acid ethyl ester]",53
3,"COc1cccc(-n2nc(C(C)(C)C)cc2NC(=O)Nc2cccc(N(C)C)c2)c1 [Example 324, 1-(3-t-butyl-1-(3-methoxyphenyl)-1H-pyrazol-5-yl)-3-(3-(dimethylamino)phenyl)urea]",40
4,"CC(C)(C)c1cc(NC(=O)c2nccc3ccccc23)n(-c2cccc(CCC(=O)O)c2)n1 [Example 150, 3-(3-{3-t-butyl-5-[(isoquinoline-1-carbonyl)-amino]-pyrazol-1-yl}-phenyl)-propionic acid]",53
5,"CCOC(=O)CCc1cccc(-n2nc(C(C)(C)C)cc2NC(=O)Nc2ccc(OC)cc2)c1 [Example 147, 3-(3-{3-t-butyl-5-[3-(4-methoxy-phenyl)-ureido]-pyrazol-1-yl}-phenyl)-propionic acid ethyl ester]",27
6,CC(C)(C)c1cc(NC(=O)c2ccc3ccccc3c2)n(-c2cccc(CCC(=O)O)c2)n1 [Example 155],58

# Same assay, conditions: read-out: % inhibition @ concentration, Table 2; at 10 uM
row,Compound,inhibition at 10 µM [%]
1,"CC1(C(=O)NCc2cccc(-n3nc(C(C)(C)C)cc3NC(=O)Nc3ccc(Cl)cc3)c2)CC2(C)CC(C)(C1)C(=O)NC2=O (centres unmarked) [Example 10, 1,5,7-trimethyl-2,4-dioxo-3-aza-bicyclo[3.3.1]nonane-7-carboxylic acid 3-{3-t-butyl-5-[3-(4-chloro-phenyl)-ureido]-pyrazol-1-yl}benzylamide]",83
